Measured values taken from patent US10434083B2, “Transmammary delivery of cyclooxygenase-2 inhibitors for analgesia in neonates” (Iowa State University Research Foundation, Inc., priority 2018, dated 2019).

How the values were obtained:
[1] = Necropsy and histopathology examination of nursing piglets at 21 d; format: in vivo, swine; conditions: for Kidney: Mild tubular ectasia (number of piglets) / Kidney: Moderate ectasia (number of piglets) / Kidney: Prominent ectasia (number of piglets) / Kidney: Rare tubular ectasia (number of piglets) / Kidney: Within normal limits (number of piglets) / Liver: Within normal limits (number of piglets) / Small Intestine: Within normal limits (number of piglets) / Stomach: Mild gastritis (number of piglets) / Stomach: Mild vasculitis, muscle layer (number of piglets) / Stomach: Within normal limits (number of piglets): nursing piglets, 21 d
Description: (§1) Thereafter, sows and piglets in all groups were humanely euthanized and examined for macroscopic signs of NSAID toxicity. Necropsies were performed on all animals to inspect for macroscopic signs of NSAID toxicity. Samples of kidney, liver, small intestine and stomach were sectioned into 0.5-1 cm slices and placed in plastic jars containing 10% buffered formalin in a 10:1 formalin:tissue ratio for histopathology examination.
(§2) Formalin-fixed sections of kidney, liver, small intestine and stomach from sows and 3 piglets/litter were trimmed and positioned in cassettes loaded into an automated tissue processor (Sakura VIP 5, Sakura Finetek, Torrance, Calif.) for overnight paraffin infiltration. Processed tissues in cassettes were then placed in a paraffin bath (Sakura Tissue-Tek TEC 5, Sakura Finetek, Torrance, Calif.) after which they were removed from the cassette and oriented in molds. […] Tissue sections were cut at 4 microns from the cooled blocks. Paraffin ribbons with tissue were then laid out on a water bath and the floating tissue sections were collected onto microscope slides. The unstained tissue sections were then mounted on the slide and dried at 60° C. for 20 minutes. Finally, the tissue was deparaffinized and rehydrated for staining by transfer through xylene and a series of decreasing concentrations of alcohol to hematoxylin on an automated stainer (Sakura Tissue-Tek Prisma, Sakura Finetek, Torrance, Calif.). After a tap water rinse, the tissue on the slide was counterstained with eosin, dehydrated in an alcohol series, cleared in xylene and cover slipped (Sakura Tissue-Tek Glas g2) prior to histological examination by a veterinary diagnostician with experience in the histological examination of swine tissues.

[2] = Necropsy and histopathology examination of lactating sows at 21 d; conditions: for Kidney: Focal interstitial nephritis (number of sows) / Kidney: Mild tubular ectasia (number of sows) / Kidney: Within normal limits (number of sows) / Liver: Within normal limits (number of sows) / Small Intestine: Within normal limits (number of sows) / Stomach: Within normal limits (number of sows): 21 d
Description: as §1, §2

[3] = Piglet average daily gain (ADG) from processing to weaning; format: in vivo, swine; conditions: piglets; for Average Daily Gain (ADG) Mean Difference: least squares means
Description: On day 21 post-drug injection in the sow, the body weight of each sow and piglet was recorded before weaning to calculate average daily weight gain.
Plasma cortisol concentrations and ADG were analyzed using a nonlinear mixed-effects analysis incorporating both fixed effects and random effects (PROC GLMMIX; SAS university edition v9.04.01, SAS Institute, Cary, N.C.). The population cortisol concentrations best fit a lognormal model. Time, treatment and their interaction were designated as fixed effects in the model with piglet nested in sow designated as a random effect. The effect of gender across treatments was examined using ANOVA to confirm that data from female piglets could be pooled to serve as a procedural control. Sow parity was also included as a covariate in the model. Where there was evidence of a treatment-by-time interaction (P<0.1), simple effect comparisons of LS means were conducted using the Tukey-Kramer adjustment for multiple comparisons. ADG outcomes best fit a Gaussian distribution. The effect of gender across treatments was also examined by ANOVA to clarify the effect of drug exposure from the effect of processing. For both outcomes, statistical significance was set a priori at P<0.05.
Eight piglets died between processing and weaning. Average daily gain in body weight (ADG) of the surviving piglets over the 21 d from processing to weaning was calculated by subtracting the body weight at processing from the body weight at weaning and dividing the result by the days from processing to weaning (FIG. 12 and FIG. 13). […] Specifically, ADG increased with the increasing doses of firocoxib administered to the lactating sows via injection.

## CC1(C)OC(=O)C(OCC2CC2)=C1c1ccc(S(C)(=O)=O)cc1 [firocoxib]
[1]; sow dose 0.5 mg/kg IM
  Kidney: Mild tubular ectasia (number of piglets): 5
  Kidney: Moderate ectasia (number of piglets): 0
  Kidney: Prominent ectasia (number of piglets): 5
  Kidney: Rare tubular ectasia (number of piglets): 1
  Kidney: Within normal limits (number of piglets): 1
  Liver: Within normal limits (number of piglets): 12
  Small Intestine: Within normal limits (number of piglets): 12
  Stomach: Mild gastritis (number of piglets): 5
  Stomach: Mild vasculitis, muscle layer (number of piglets): 2
  Stomach: Within normal limits (number of piglets): 5
[1]; sow dose 1.0 mg/kg IM
  Kidney: Mild tubular ectasia (number of piglets): 9
  Kidney: Moderate ectasia (number of piglets): 0
  Kidney: Prominent ectasia (number of piglets): 0
  Kidney: Rare tubular ectasia (number of piglets): 1
  Kidney: Within normal limits (number of piglets): 2
  Liver: Within normal limits (number of piglets): 12
  Small Intestine: Within normal limits (number of piglets): 12
  Stomach: Mild gastritis (number of piglets): 6
  Stomach: Mild vasculitis, muscle layer (number of piglets): 2
  Stomach: Within normal limits (number of piglets): 4
[1]; sow dose 1.5 mg/kg IM
  Kidney: Mild tubular ectasia (number of piglets): 9
  Kidney: Moderate ectasia (number of piglets): 0
  Kidney: Prominent ectasia (number of piglets): 3
  Kidney: Rare tubular ectasia (number of piglets): 0
  Kidney: Within normal limits (number of piglets): 0
  Liver: Within normal limits (number of piglets): 12
  Small Intestine: Within normal limits (number of piglets): 12
  Stomach: Mild gastritis (number of piglets): 6
  Stomach: Mild vasculitis, muscle layer (number of piglets): 3
  Stomach: Within normal limits (number of piglets): 3
[1]; sow dose 2.0 mg/kg IM
  Kidney: Mild tubular ectasia (number of piglets): 5
  Kidney: Moderate ectasia (number of piglets): 1
  Kidney: Prominent ectasia (number of piglets): 3
  Kidney: Rare tubular ectasia (number of piglets): 0
  Kidney: Within normal limits (number of piglets): 3
  Liver: Within normal limits (number of piglets): 12
  Small Intestine: Within normal limits (number of piglets): 12
  Stomach: Mild gastritis (number of piglets): 2
  Stomach: Mild vasculitis, muscle layer (number of piglets): 1
  Stomach: Within normal limits (number of piglets): 9
[1]; piglets, all treatment groups
  kidneys with ectatic tubules (number): 10
  sections of stomach lining with mild gastritis (number): 19
[2]; kidney, liver, stomach and small intestines, sows and piglets
  macroscopic lesions on post-mortem examination: No macroscopic lesions were evident
[2]; sows, 0.5 mg/kg IM
  Kidney: Focal interstitial nephritis (number of sows): 2
  Kidney: Mild tubular ectasia (number of sows): 1
  Kidney: Within normal limits (number of sows): 1
  Liver: Within normal limits (number of sows): 4
  Small Intestine: Within normal limits (number of sows): 4
  Stomach: Within normal limits (number of sows): 4
[2]; sows, 1.0 mg/kg IM
  Kidney: Focal interstitial nephritis (number of sows): 1
  Kidney: Mild tubular ectasia (number of sows): 2
  Kidney: Within normal limits (number of sows): 1
  Liver: Within normal limits (number of sows): 4
  Small Intestine: Within normal limits (number of sows): 4
  Stomach: Within normal limits (number of sows): 4
[2]; sows, 1.5 mg/kg IM
  Kidney: Focal interstitial nephritis (number of sows): 0
  Kidney: Mild tubular ectasia (number of sows): 1
  Kidney: Within normal limits (number of sows): 3
  Liver: Within normal limits (number of sows): 4
  Small Intestine: Within normal limits (number of sows): 4
  Stomach: Within normal limits (number of sows): 4
[2]; sows, 2.0 mg/kg IM
  Kidney: Focal interstitial nephritis (number of sows): 2
  Kidney: Mild tubular ectasia (number of sows): 1
  Kidney: Within normal limits (number of sows): 1
  Liver: Within normal limits (number of sows): 4
  Small Intestine: Within normal limits (number of sows): 4
  Stomach: Within normal limits (number of sows): 4
[2]; sows, all treatment groups
  kidneys with ectatic tubules (number): 5
[3]; 21 d after processing, sow doses 0.5-2.0 mg/kg IM
  average daily gain, dose dependence: dose-dependent increase in average daily gain
[3]; sow dose 0.5 mg/kg vs 1.0 mg/kg
  Average Daily Gain (ADG) Mean Difference: 2.56 g
[3]; sow dose 0.5 mg/kg vs 1.5 mg/kg
  Average Daily Gain (ADG) Mean Difference: -17.98 g
[3]; sow dose 0.5 mg/kg vs 2.0 mg/kg
  Average Daily Gain (ADG) Mean Difference: -39.01 g
[3]; sow dose 1.0 mg/kg vs 1.5 mg/kg
  Average Daily Gain (ADG) Mean Difference: -20.54 g
[3]; sow dose 1.0 mg/kg vs 2.0 mg/kg
  Average Daily Gain (ADG) Mean Difference: -41.57 g
[3]; sow dose 1.5 mg/kg vs 2.0 mg/kg
  Average Daily Gain (ADG) Mean Difference: -21.03 g
[3]; sow dose 2.0 mg/kg vs 0.5 mg/kg (P=0.0076) or 1.0 mg/kg (P=0.0047)
  weight gain (ADG) over 21 d from processing to weaning: gained more weight
